From patent US3993683A, “Biphenylyl derivatives” (Boehringer Ingelheim GmbH, priority 1974, dated 1976)
Like-named read-outs stand apart in the source and are kept apart here.

How the values were obtained:
white mice = experiment: Acute toxicity after oral administration of a single dose; assay type: in vivo; settings: observation time 14 days
Method: (§1) The acute toxicity of the test compounds was determined in white mice (observation time: 14 days) after oral administration of a single dose.

non-anesthetized mice = experiment: Prolonging effect upon the bleeding time (method of Duke); assay type: in vivo; settings: 10 mgm/kg per os, vs untreated animals; for change in vivo at 10 mg/kg: Mus musculus, po
Text: 2. The prolonging effect upon the bleeding time was ascertained by the method of Duke, J. Amer. Med. Assoc. 15, 1185 (1910). 10 mgm/kg of the test compound were given per os to non-anesthetized mice. One or three hours after administration of the test compound, about 0.5 mm was cut off from the tail of each animal, and the exuded blood was carefully soaked up with filter paper at intervals of 30 seconds. The number of drops of blood so obtained was used as a measure for the bleeding time compared to untreated animals (5 animals/test).

[1] = system: thrombocyte aggregation in the platelet-rich plasma of healthy human test subjects; experiment: Inhibition of collagen-induced thrombocyte aggregation (method of Born and Cross); assay type: cell-based; settings: 10^-4 mol/liter test compound, 10 minutes incubation at 37° C, vs untreated controls; for inhibition at 100 µM: Homo sapiens, 10 min
Text: 1. The inhibiting action upon thrombocyte aggregation was ascertained by the method of Born and Cross, J. Physiol. 170, 397 (1964), in the platelet-rich plasma of healthy human test subjects, by photometrically ascertaning and registering the rate of decrease of the optical density after addition of commercial collagen containing 1 mgm of collagen fibrils per ml. The angle of inclination of the density curve is a measure of the rate of aggregaton (V max.). The point on the curve which corresponded to the greatest lightpermeability was used for calculation of the optical density (o.D.).
The collagen doses were held to a minimum, but still sufficiently large to result in an irreversible aggregation. Prior to addition of collagen, each plasma sale was incubated for 10 minutes at 37° C with various amounts of the test compound. To provoke maximum aggregation, about 0.01 ml of the collagen solution was added to 1 ml of platelet-rich plasma.
The values in Table I below represent the inhibition of the aggregation rate in % (V max) and the alteration of the optical density (O.D.) in %, compared with the untreated controls, i.e. without addition of the test compound.

[2] = Acute toxicity after oral administration of a single dose; assay type: in vivo; settings: mouse, in vivo, po, white mice, observation time 14 days
Method: as §1

[3] = 1 h, 1 hour after administration, read-out: Prolongation of bleeding time in % after 1 hour
[4] = 3 h, 3 hours after administration, read-out: Prolongation of bleeding time in % after 3 hours
[5] = read-out: Inhibition in % of the aggregation rate (V max)
[6] = read-out: Inhibition in %: alteration of the optical density (O.D.)

SMILES	animals died (at the stated dose) (white mice)	change in vivo at 10 mg/kg (non-anesthetized mice; [3])	change in vivo at 10 mg/kg (non-anesthetized mice; [4])	Inhibition in % of the aggregation rate (V max) [1]	Inhibition in %: alteration of the optical density (O.D.) [1]	Prolongation of bleeding time in % after 1 hour (non-anesthetized mice; 1 hour after administration)	Prolongation of bleeding time in % after 3 hours (non-anesthetized mice; 3 hours after administration)	inhibition at 100 µM [1, 5]	inhibition at 100 µM [1, 6]	LD50 at 336 h [2]
COC(=O)C[S+]([O-])C(C)c1ccc(-c2ccccc2F)cc1 (single isomer, unassigned) [A, [1-(2'-fluoro-4-biphenylyl)-ethylsulfinyl]-acetic acid methyl ester]	1 out of 10	136%	66%	32%	45%					
COC(=O)C[S+]([O-])C(C)c1ccc(-c2ccccc2F)cc1 (single isomer, unassigned) [B, [1-(2'-fluoro-4-biphenylyl)-ethylsulfinyl]-acetic acid methyl ester]	2 out of 5			72%	81%	142%	56%			
COC(=O)C[S+]([O-])C(C)c1ccc(-c2ccccc2F)cc1 (single isomer, unassigned) [F, dextrorotatory [1-(2'-fluoro-4-biphenylyl)-ethylsulfinyl]-acetic acid methyl ester]		117%						20%	19%	
COC(=O)C[S+]([O-])C(C)c1ccc(-c2ccccc2F)cc1 (single isomer, unassigned) [G, levorotatory [1-(2'-fluoro-4-biphenylyl)-ethylsulfinyl]-acetic acid methyl ester]				13%	27%	129%				
CC(C)CCOC(=O)C[S+]([O-])C(C)c1ccc(-c2ccccc2F)cc1 (centres unmarked) [C, [1-(2'-fluoro-4-biphenylyl)-ethylsulfinyl]-acetic acid isoamyl ester]	1 out of 5	112%	49%					67%	82%	> 250 mg/kg
COC(=O)C[S+]([O-])C(C)(C)c1ccc(-c2ccccc2F)cc1 (centres unmarked) [D]	2 out of 5	71%						37%	48%	> 250 mg/kg
COC(=O)C[S+]([O-])CCC(C)c1ccc(-c2ccccc2)cc1 (centres unmarked) [E, [3-(4-biphenylyl)-butyl-(1)-sulfinyl]-acetic acid methyl ester]	0 out of 5	188%	85%					92%	95%	> 250 mg/kg
CNC(=O)C[S+]([O-])C(C)c1ccc(-c2ccccc2F)cc1 (centres unmarked) [H, [1-(2'-fluoro-4-biphenylyl)-ethylsulfinyl]-acetic acid methyl amide]	0 out of 5	64%						8%	13%	> 250 mg/kg
CC(c1ccc(-c2ccccc2F)cc1)[S+]([O-])CC(=O)N1CCCCC1 (centres unmarked) [I, [1-(2'-fluoro-4-biphenylyl)-ethylsulfinyl]-acetic acid piperidide]	0 out of 5	122%						85%	90%	> 250 mg/kg
CC(c1ccc(-c2ccccc2F)cc1)[S+]([O-])CC(=O)N1CC[S+]([O-])CC1 (centres unmarked) [J, [1-(2'-fluoro-4-biphenylyl)-ethylsulfinyl]-acetic acid-(1-oxido-thiomorpholide)]	0 out of 5	149%						16%	31%	> 250 mg/kg
C[S+]([O-])CC(O)c1ccc(-c2ccc(F)cc2)cc1 (centres unmarked) [K]		68%	30%					59%	73%	
COC(=O)C[S+]([O-])CC(=O)c1ccc(-c2ccccc2)cc1 (centres unmarked) [L, [2-(4-biphenylyl)-2-oxo-ethylsulfinyl]-acetic acid methyl ester]		120%	78%					22%	47%	
COC(=O)C[S+]([O-])CC(=O)c1ccc(-c2ccccc2F)cc1 (centres unmarked) [M, [2-(2'-fluoro-4-biphenylyl)-2-oxo-ethylsulfinyl]-acetic acid methyl ester]		90%	39%					97%	95%	
O=C(O)C[S+]([O-])CC(=O)c1ccc(-c2ccc(F)cc2)cc1 (centres unmarked) [N, [2-(4'-fluoro-4-biphenyl)-2-oxo-ethylsulfinyl]acetic acid]		98%	37%							
COC(=O)C[S+]([O-])C(C)c1ccc(-c2cccc(Cl)c2)cc1 (centres unmarked) [O, [1-(3'-chloro-4-biphenylyl)-ethylsulfinyl]-acetic acid methyl ester]	0 out of 5	12%						66%	76%	> 250 mg/kg
COC(=O)C[S+]([O-])C(C)c1ccc(-c2ccccc2[N+](=O)[O-])cc1 (centres unmarked) [P, [1-(2'-nitro-4-biphenylyl)ethylsulfinyl]-acetic acid methyl ester]	0 out of 5	15%						61%	74%	> 250 mg/kg
COC(=O)C[S+]([O-])C(C)c1ccc(-c2ccccc2F)c(F)c1 (centres unmarked) [Q, [1-(2,2'-difluoro-4-biphenylyl)-ethylsulfinyl]-acetic acid methyl ester]	0 out of 5	73%						48%	54%	> 250 mg/kg
COC(=O)C[S+]([O-])C(C)c1ccc(-c2ccc(Br)cc2)c(F)c1 (centres unmarked) [R, [1-(2-fluoro-4'-bromo-4-biphenylyl)-ethylsulfinyl]-acetic acid methyl ester]		50%						46%	64%	
COC(=O)CS(=O)(=O)C(C)c1ccc(-c2ccccc2F)cc1 (centres unmarked) [S]	0 out of 5	83%	27%					45%	66%	> 250 mg/kg
CC(C)CCOC(=O)CS(=O)(=O)C(C)c1ccc(-c2ccccc2F)cc1 (centres unmarked) [T, [1-(2'-fluoro-4-biphenylyl)-ethylsulfonyl]-acetic acid isoamyl ester]	0 out of 5	51%						76%	83%	> 250 mg/kg
CC(c1ccc(-c2ccccc2F)cc1)S(C)(=O)=O (centres unmarked) [U, [1-(2'-fluoro-4-biphenylyl)-ethyl]-methylsulfone]	0 out of 5	56%						87%	90%	> 250 mg/kg
O=C(O)CS(=O)(=O)Cc1ccc(-c2ccc(Cl)cc2)cc1 [V, [(4'-chloro-4-biphenylyl)-methylsulfonyl]-acetic acid, reference compound]	3 out of 10	3%						6%	11%	> 250 mg/kg
